Laboratory results as given in patent US9085791B2, “Method for screening substance relating to endoplasmic reticulum stress participating in onset of diabetes” (THE UNIVERSITY OF TOKUSHIMA, priority 2011, dated 2015).

Experiments:
Format in all cases: cell-based
[1] = system: ATF6 activation; assay: ATF6 activity reporter system (EGFPS-ATF6d and EGFPL expression vectors) in HEK293 cells, green fluorescence
Source text: An EGFPS-ATF6d expression vector and an EGFPL expression vector were produced using a green fluorescent protein GFP as a reporter protein. An ATF6 activity reporter system having the two vectors was introduced into the following cell strains.
The EGFPS-ATF6d expression vector and the EGFPL expression vector were introduced into HEK293 cells using a polyethylene imine method at an efficiency of not less than 90%. Through an electroporation method using NEON (electroporation device) (Invitrogen), the EGFPS-ATF6d expression vector and the EGFPL expression vector were introduced into MIN6 cells, HepG2 cells, 3T3-L1 cells, and L6 cells at an efficiency of not less than 80%, 60%, 90%, and 70%, respectively.
In order to confirm that the ATF6 activity reporter system functions in an endoplasmic reticulum stress-dependent manner, the EGFPS-ATF6d expression vector and the EGFPL expression vector were coexpressed or individually expressed in HEK293 cells.
In the cells in which the EGFPS-ATF6d expression vector and the EGFPL expression vector were coexpressed, green fluorescence was slightly observed. The cells were stimulated with 0.2 ug/ml tunicamycin, which is an endoplasmic reticulum stress inducer, and observed 6 hours after the stimulation.
It is important that ATF6 activity reporter system is capable of detecting ATF6 activation in an endoplasmic reticulum stress-specific manner. Therefore, HEK293 cells in which the EGFPS-ATF6d expression vector and the EGFPL expression vector are coexpressed are stimulated by etoposide, which is a DNA replication inhibitor; thapsigargin, which is an endoplasmic reticulum stress inducer; and DTT, which is an endoplasmic reticulum stress inducer, in an amount of 100 uM, 0.2 uM, and 1 mM, respectively; and the presence of fluorescence was observed.

[2] = system: HEK293 cells; assay: Hoechst33258 staining for cell death of stimulated HEK293 cells; conditions: etoposide 100 uM, thapsigargin 0.2 uM, DTT 1 mM, after 36 hours
[3] = system: MIN6 cells; assay: Insulin secretion in pancreatic β-cell MIN6 cells (ELISA); conditions: thapsigargin 0.2 uM or DTT 1 M for 30 minutes, culture 36 hours, then KREBS buffer with 3 mM or 20 mM glucose for 1 hour
Description: A control solution (DMSO), a thapsigargin solution (thapsigargin/DMSO solution), or a DTT solution (DTT/DMSO solution) was added to a culture solution (DMEM containing 10% fetal bovine serum) in which pancreatic p-cell MIN6 cells are cultured, and the culture solution was replaced with a general culture solution (DMEM containing 10% fetal bovine serum) after 30 minutes. Then, the culture was continued for 36 hours. The thapsigargin solution was added so that the thapsigargin concentration in the culture solution became 0.2 uM, and the DTT solution was added so that the DTT concentration in the culture solution became […]. Thereafter, the culture solution was replaced with a KREBS buffer solution containing 3 mM or 20 mM glucose, and the culture was continued for 1 hours. The concentration of insulin secreted in the culture solution was measured according to the ELISA method.

[4] = system: ATF6 activation; assay: ATF6 activity reporter system in mouse fibroblasts modified by deleting Ire1α gene or PERK gene; conditions: 0.2 ug/ml tunicamycin, 6 hours
Description: The endoplasmic reticulum stress response is known to be controlled by three individual pathways. It is important that the ATF6 activity reporter system enables detection of ATF6 activation with no influence of other pathways, such as Ire1 pathway or PERK pathway. In this connection, the EGFPS-ATF6d expression vector and the EGFPL expression vector were coexpressed in mouse fibroblasts modified by deleting Ire1α gene or PERK gene. The cells were observed 6 hours after stimulation with 0.2 ug/ml tunicamycin, which is an endoplasmic reticulum stress inducer.

[5] = system: IRE1 pathway; assay: Ire1 activation reporter (XBP1 splicing) in cell strains derived from different organs; conditions: 0.2 ug/ml tunicamycin, 6 hours
Source text: (§1) The endoplasmic reticulum stress response is controlled by the three pathways, namely, Ire1 pathway, PERK pathway, and ATF6 pathway. Apart from the homeostasis of endoplasmic reticulum, they are also individually involved in control of organ-specific metabolism. Detection of the three endoplasmic reticulum stress response pathways is considered important to discover a drug targeting organ-specific endoplasmic reticulum stress response with fewer side effects. […] Med. (2004) 10 98-102, for measuring Ire1 pathway by XBP1 splicing, and a PERK activation reporter expression vector, disclosed in J Cell Biol. (2004) 167 27-33, for measuring PERK pathway by ATF4 translation were produced. An EGFPS-ATF6d expression vector, an EGFPL expression vector, the Ire1 activation reporter expression vector, and the PERK activation reporter expression vector were expressed in pancreatic β-cell strain MIN6 cells, hepatic cell strain HepG2 cells, adipose cell strain 3T3-L1 cells, and skeletal muscle cell strain L6 cells, respectively. The cells were observed 6 hours after the stimulation with 0.2 ug/ml tunicamycin, which is an endoplasmic reticulum stress inducer.

[6] = system: ATF6 pathway; assay: ATF6 activity reporter system in cell strains derived from different organs; conditions: HepG2, MIN6, L6, 3T3-L1 cells; 0.2 ug/ml tunicamycin, 6 hours
Source text: as §1

[7] = system: PERK pathway; assay: PERK activation reporter (ATF4 translation) in cell strains derived from different organs; conditions: HepG2, MIN6, L6, 3T3-L1 cells; 0.2 ug/ml tunicamycin, 6 hours
Source text: as §1

[8] = HEK293 cells coexpressing both vectors, etoposide 100 uM, thapsigargin 0.2 uM, DTT 1 mM

O[C@H](CS)[C@H](O)CS (racemic) [DTT, dithiothreitol]
green fluorescence [1, 8]: significant green fluorescence was observed | cell death (Hoechst33258 staining) [2]: severe enough to cause cell death after 36 hours | insulin secretion (concentration of insulin secreted in the culture solution) [3]: insulin secretion was suppressed

COc1cc([C@@H]2c3cc4c(cc3[C@@H](O[C@@H]3O[C@@H]5CO[C@@H](C)O[C@H]5[C@H](O)[C@H]3O)[C@H]3COC(=O)[C@H]23)OCO4)cc(OC)c1O [etoposide]
green fluorescence [1, 8]: no green fluorescence was observed | cell death (Hoechst33258 staining) [2]: severe enough to cause cell death after 36 hours

C/C=C(/C)C(=O)O[C@H]1C(C)=C2[C@H]([C@@H]1OC(=O)CCCCCCC)[C@@](C)(OC(C)=O)C[C@H](OC(=O)CCC)[C@@]1(O)[C@H]2OC(=O)[C@@]1(C)O [thapsigargin]
green fluorescence [1, 8]: significant green fluorescence was observed | cell death (Hoechst33258 staining) [2]: severe enough to cause cell death after 36 hours | insulin secretion (concentration of insulin secreted in the culture solution) [3]: insulin secretion was suppressed

tunicamycin
green fluorescence ([1]; 0.2 ug/ml tunicamycin, 6 hours after stimulation, HEK293 cells coexpressing EGFPS-ATF6d and EGFPL expression vectors): significant green fluorescence was observed | green fluorescence ([1]; 0.2 ug/ml tunicamycin, 6 hours after stimulation, HEK293 cells with EGFPS-ATF6d and EGFPL expression vectors individually expressed): no green fluorescence was observed | green fluorescence ([4]; fibroblast modified by Ire1α gene deletion): significant green fluorescence was observed | green fluorescence ([4]; fibroblast modified by PERK gene deletion): significant green fluorescence was observed | activation of IRE1 pathway (fluorescence intensity) ([5]; adipose cell strain 3T3-L1 cells): relatively low | activation of IRE1 pathway (fluorescence intensity) ([5]; hepatic cell strain HepG2 cells): relatively high | activation of IRE1 pathway (fluorescence intensity) ([5]; pancreatic β-cell strain MIN6 cells): relatively high | activation of IRE1 pathway (fluorescence intensity) ([5]; skeletal muscle cell strain L6 cells): relatively high | intensity of activation of ATF6 pathway, order among cell strains [6]: highest in hepatic cell strain HepG2 cells, followed by pancreatic β-cell strain MIN6 cells, skeletal muscle cell strain L6 cells, and adipose cell strain 3T3-L1 cells in descending order | degree of the activation of PERK pathway, order among cell strains [7]: highest in hepatic cell strain HepG2 cells (pancreatic β-cell strain MIN6 cells and skeletal muscle cell strain L6 cells), followed by adipose cell strain 3T3-L1 cells
